In patent US9206445B2, “Biocatalysts with enhanced inhibitor tolerance” (priority 2013, dated 2015):
Values after ≈ are worked out from the molar mass of the structure shown.

System: Z. mobilis 8b
Assay: Furfural MIC for growth of Z. mobilis (plate screening levels given as MIC multiples)
Type: cell-based
Conditions: Zymomonas mobilis, 24 h, read-out: MIC 1× (minimum concentration of inhibitor needed for complete inhibition of growth)
Procedure: Both Z. mobilis 8b and 8b knockout library cultures were revived from glycerol stocks in 20 mL MRMG0.75×0.25 (10 g/L yeast extract, 2 g/L KH2PO4 and 1 g/L MgSO4.7H2O, 7.5 g/L glucose and 2.5 g/L xylose) and also containing […] spectinomycin for 1.5 hours at 35° C., 125 rpm. Cells were centrifuged and resuspended to a final OD600 nm of 0.025 in a 100 mL culture, and grown for an additional 3-4 generations at 35° C. in 125 mL Erlenmeyer flasks with foam enclosures, 125 rpm (about 6 hours). Cells were initially screened on MRMGS (5% w/v glucose) plates containing 0, […], 5, or 7.5 g/L of furfural, equivalent to MICs of 0.75×, 1× or 1.5×. MIC 1× is the minimum (lowest) concentration of inhibitor needed for complete inhibition of growth (RMG2) over a 24-hour period. Approximately 500, 1000 and 2000 colonies were plated in triplicates. Furfural levels were also tested at 0.7, 1.5, 3 or 4 g/L in glucose.

## O=Cc1ccco1 [furfural]
  MIC: 5000 µg/mL (≈ 52 mM)
